Results from US9908893B2 (Latvian Institute of Organic Synthesis, priority 2013, dated 2018).
Like-named read-outs stand apart in the source and are kept apart here.

What was measured:
[1] = test system: A7R5 (rat aorta smooth muscle) cells; experiment: Intracellular Ca2+ measurements, Fluo-4 NW Calcium Assay Kit, KCl-induced [Ca2+]i increase; type: cell-based; conditions: for Ca^2+ antagonist effect compared with Verapamil: relative to Verapamil
Protocol: Changes in intracellular [Ca^2+] concentration were studied using A7R5 (rat aorta smooth muscle) cells and Fluo-4 NW Calcium Assay Kit (“Invitrogen”, Sweden) according to manufacturer's instructions.
Changes in intracellular [Ca^2+]i concentration were studied using Fluo-4 NW Calcium Assay Kit (“Invitrogen”, Sweden) accordingly to manufacturer's instructions. The A7R5 (rat aorta smooth muscle) cells were grown at 37° C. in a humidified atmosphere with 5% CO2/95% air in DMEM medium containing 2 mM glutamine and supplemented with 10% FBS. The cells were seeded into 96 well plate at 10,000 cells/well and incubated for 72 h. The cells were loaded with […] for 45 min. The Fura-4NW loaded cells were pre-incubated in the dark for 15 minutes with tested compounds at concentrations from 0.8 to 100 μM. Then A7R5 cells were pre-treated with 1.5 mM CaCl2 for 5 minutes and KCl (50 mM) was added to A7R5 cells to induce [Ca^2+]i increase. Amlodipine, the well-known calcium channel inhibitor was used as the positive control.

[2] = Basal toxicity test, neutral red, alternative LD50 calculated from IC50; conditions: mouse, LD50, alternative LD50 calculated by formula from IC50 in NIH 3T3 cells
Protocol: A low therapeutic index of chemotherapy agents is due to affecting not only cancer formation but also normal cells.
9,000 NIH 3T3 cells/well were placed into 96-well plates for 24 h and then exposed to the test compound over a range of eight concentration (1-1000 μg/ml) for 24 h. Upon that, the cells were incubated with the neutral red dye for 4 h and then OD was determined at 540 nm. […] The IC50 values were calculated using the program Graph Pad Prism® 4.0

[3] = Rattus norvegicus, A7R5, read-out: Ca^2+ A7R5, IC50

SMILES	IC50 [1, 3]	LD50 at 24 h [2]	Ca^2+ antagonist effect compared with Verapamil ([1]; A7R5 cells)	Ca^2+ A7R5, IC50 ([1]; A7R5 cells, KCl (50 mM) induced [Ca2+]i increase, compounds 0.8 to 100 μM)	IC50 ([1]; A7R5 cells, KCl (50 mM) induced [Ca2+]i increase, compounds 0.8 to 100 μM, read-out: Ca^2+ A7R5, IC50)
COc1ccc(C(=O)c2sc3nc(C)c(C(C)=O)c(-c4ccc(OC)c(OC)c4)c3c2N)cc1 [Compound 1, 5-Acetyl-3-amino-4-(3,4-dimethoxyphenyl)-2-(4-methoxybenzoyl)-6-methyl-thieno[2,3-b]pyridine]	24 ± 1.2 µM	> 2000 mg/kg			
COc1ccc(C(=O)c2sc3nc(C)c(C(C)=O)c(-c4ccc(OC)c(OC)c4)c3c2N)c(OC)c1 [Compound 2, 5-Acetyl-3-amino-2-(2,4-dimethoxybenzoyl)-4-(3,4-dimethoxyphenyl)-6-methyl-thieno[2,3-b]pyridine]	15 ± 1.1 µM	> 2000 mg/kg			
COc1ccc(C(=O)c2sc3nc(C)c(C(C)=O)c(-c4cc(OC)c(OC)c(OC)c4)c3c2N)cc1 [Compound 3, 5-Acetyl-3-amino-2-(4-methoxybenzoyl)-6-methyl-4-(3,4,5-trimethoxyphenyl)-thieno[2,3-b]pyridine]	14 ± 0.9 µM	> 2000 mg/kg	more than ten times lower		
COc1ccc(C(=O)c2sc3nc(C)c(C(C)=O)c(-c4cc(OC)c(OC)c(OC)c4)c3c2N)c(OC)c1 [Compound 4, 5-Acetyl-3-amino-2-(2,4-dimethoxybenzoyl)-6-methyl-4-(3,4,5-trimethoxyphenyl)-thieno[2,3-b]pyridine]		1070 mg/kg		No effect	
COC(=O)c1c(C)nc2sc(C(=O)c3ccc(OC)cc3)c(N)c2c1-c1ccc(OC)cc1 [Compound 5, 3-Amino-2-(4-methoxybenzoyl)-4-(4-methoxyphenyl)-6-methyl-thieno[2,3-b]-pyridine-5-carboxylic acid methyl ester]	15.4 ± 2 µM	> 2000 mg/kg			
COC(=O)c1c(C)nc2sc(C(=O)c3ccc(OC)cc3OC)c(N)c2c1-c1ccc(OC)c(OC)c1 [Compound 7, 3-Amino-2-(2,4-dimethoxybenzoyl)-4-(3,4-dimethoxyphenyl)-6-methyl-thieno[2,3-b]pyridine-5-carboxylic acid methyl ester]	5.6 ± 1.4 µM	1040 mg/kg			
COC(=O)c1c(C)nc2sc(C(=O)c3ccc(F)cc3)c(N)c2c1-c1cc(OC)c(OC)c(OC)c1 [Compound 8, 3-Amino-2-(4-fluorobenzoyl)-6-methyl-4-(3,4,5-trimethoxyphenyl)thieno[2,3-b]-pyridine-5-carboxylic acid methyl ester]	3 ± 0.8 µM	> 2000 mg/kg			
COC(=O)c1c(C)nc2sc(C(=O)c3ccc(Cl)cc3)c(N)c2c1-c1cc(OC)c(OC)c(OC)c1 [Compound 9, 3-Amino-2-(4-chlorobenzoyl)-6-methyl-4-(3,4,5-trimethoxyphenyl)thieno[2,3-b]-pyridine-5-carboxylic acid methyl ester]	3 ± 0.2 µM	1420 mg/kg			
CCOC(=O)c1c(C)nc2sc(C(=O)c3ccc(OC)cc3)c(N)c2c1-c1ccc(O)cc1 [Compound 14, 3-Amino-4-(4-hydroxyphenyl)-2-(4-methoxybenzoyl)-6-methylthieno[2,3-b]-pyridine-5-carboxylic acid ethyl ester]	4.3 ± 0.7 µM	231 mg/kg			
CCOC(=O)c1c(C)nc2sc(C(=O)c3ccc(OC)cc3)c(N)c2c1-c1ccc(O)c(OC)c1 [Compound 16, 3-Amino-4-(4-hydroxy-3-methoxyphenyl)-2-(4-methoxybenzoyl)-6-methyl-thieno[2,3-b]pyridine-5-carboxylic acid ethyl ester]	3.7 ± 0.4 µM	> 2000 mg/kg	more than ten times lower		
CCCOCCOC(=O)c1c(C)nc2sc(C(=O)c3ccc(OC)cc3OC)c(N)c2c1-c1cc(OC)c(OC)c(OC)c1 [Compound 37, 3-Amino-2-(2,4-dimethoxybenzoyl)-6-methyl-4-(3,4,5-trimethoxyphenyl)-thieno[2,3-b]pyridine-5-carboxylic acid 2-propoxyethyl ester]					> 100 µM
COc1ccc(C(=O)c2sc3nc(C)cc(C)c3c2N)c(OC)c1 [Compound 45, 3-Amino-4,6-dimethyl-2-(2,4-dimetoxybenzoyl)thieno[2,3-b]pyridine]		959 mg/kg			
